Test results reported in patent US20080293674A1, “Azinyl Imidazoazine and Azinyl Carboxamide” (priority 2004, published 2008).
Read-outs that look alike come from different tables or passages of the source.

Columns and labels:
[1] = tested on: Aphis gossypii; assay: Aphis gossypii test (cotton leaf immersion); type: in vivo; details: 144 h, after 6 days at a concentration of 100 ppm, cotton leaves (Gossypium hirsutum), read-out: death rate
Protocol: After the desired time the death rate was determined in %, where 100% means that all aphids were killed; 0% means that no aphids were killed

[2] = tested on: Myzus persicae; assay: Myzus test (spray treatment); type: in vivo; details: 120 h, after 5 days at a concentration of 500 g/ha, read-out: death rate
Protocol: After the desired time the death rate was determined in %, where 100% means that all aphids were killed; 0% means that no aphids were killed.

[3] = China cabbage leaves (Brassica pekinensis)

Structure (SMILES) | pest or weed control at 100 ppm [1] | pest or weed control at 500 g/ha [2, 3] | pest or weed control at 500 g/ha ([2]; compounds of structure (II-b))
FC(F)(F)c1ccncc1-c1ncc2ccccn12 [Example 1, 3-(4-trifluoromethylpyridin-3-yl)-imidazo[1,5-a]pyridine] | ≥ 80% | ≥ 80% | –
FC(F)(F)c1ccncc1-c1nc(Br)c2ccccn12 [Example 3, 1-bromo-3-(4-trifluoromethylpyridin-3-yl)-imidazo[1,5-a]pyridine] | – | ≥ 80% | –
FC(F)(F)c1ccncc1-c1nc(Cl)c2ccccn12 [Example 4, 1-chloro-3-(4-trifluoromethylpyridin-3-yl)-imidazo[1,5-a]pyridine] | ≥ 80% | ≥ 80% | –
O=Cc1nc(-c2cnccc2C(F)(F)F)n2ccccc12 [Example 5, 3-(4-trifluoromethylpyridin-3-yl)-imidazo[1,5-a]pyridine-1-carboxaldehyde] | ≥ 80% | ≥ 80% | –
CO/N=C/c1nc(-c2cnccc2C(F)(F)F)n2ccccc12 [Example 6, 1-methoximinomethyl-3-(4-trifluoromethylpyridin-3-yl)-imidazo[1,5-a]-pyridine] | ≥ 80% | ≥ 80% | –
FC(F)(F)c1ccncc1-c1nc(-c2cccc(Cl)c2)c2ccccn12 [Example 7, 1-(3-chlorophenyl)-3-(4-trifluoromethylpyridin-3-yl)-imidazo[1,5-a]-pyridine] | – | ≥ 80% | –
FC(F)(F)c1ccncc1-c1nc(C#Cc2ccccc2)c2ccccn12 [Example 8, 1-(phenylethynyl)-3-(4-trifluoromethylpyridin-3-yl)-imidazo[1,5-a]-pyridine] | ≥ 80% | ≥ 80% | –
FC(F)(F)c1cc(Cl)c2c(Cl)nc(-c3cnccc3C(F)(F)F)n2c1 [Example 38] | ≥ 80% | ≥ 80% | –
FC(F)(F)c1ccncc1-c1nc(CN(Cc2ccccc2)Cc2ccccc2)c2ccccn12 [Example 124, 1-(dibenzylaminomethyl)-3-(4-trifluoromethylpyridin-3-yl)-imidazo[1,5-a]pyridine] | ≥ 80% | ≥ 80% | –
O=C(O)c1nc(-c2cnccc2C(F)(F)F)n2ccccc12 [Example 126, 3-(4-trifluoromethylpyridin-3-yl)-imidazo[1,5-a]pyridine-1-carboxylic acid] | ≥ 80% | ≥ 80% | –
FC(F)(F)c1ccncc1-c1nc(/C=C/c2ccccc2)c2ccccn12 [Example 127, 1-(phenylvinylidene)-3-(4-Trifluoromethylpyridin-3-yl)-imidazo[1,5-a]-pyridine] | ≥ 80% | ≥ 80% | –
CSc1nc(-c2cnccc2C(F)(F)F)n2ccccc12 [Example 128] | – | ≥ 80% | –
Cc1cc(C)nc(CNC(=O)c2cnccc2C(F)(F)F)n1 [II-11, N-(4,6-Dimethylpyrimidin-2-ylmethyl)-4-trifluoromethyl-nicotinamide] | – | – | ≥ 90%
O=C(NCc1ncccn1)c1cnccc1C(F)(F)F [II-27, N-Pyrimidin-2-ylmethyl-4-trifluoromethyl-nicotinamide] | – | – | ≥ 90%
Cc1cnc(CNC(=O)c2cnccc2C(F)(F)F)cn1 [II-29] | – | – | ≥ 90%
Cc1cc(CNC(=O)c2cnccc2C(F)(F)F)nc(C)n1 [II-38, N-(2,6-Dimethylpyrimidin-4-ylmethyl)-4-trifluoromethyl nicotinamide] | – | ≥ 80% | ≥ 90%
